Reference: the CheMixHub ionic liquid set

Test: xn = mol fraction of the nth substance listed

CCCC[n+]1ccn(C)c1.[Br-] + Cc1ncc(CO)c(CO)c1O.Cl + O
viscosity [mPa·s], 100 kPa
Conditions	293.15 K	298.15 K	303.15 K	308.15 K	313.15 K
x2 = 0, x1 = 0.0009002	1.033	0.918	0.823	0.753	0.676
x2 = 0, x1 = 0.001799	1.057	0.938	0.841	0.757	0.689
x2 = 0, x1 = 0.002696	1.068	1.001	0.904	0.796	0.748
x2 = 0.0002693, x1 = 0.0008999	1.037	0.922	0.827	0.757	0.68
x2 = 0.0002812, x1 = 0.001798	1.062	0.943	0.846	0.762	0.694
x2 = 0.0002821, x1 = 0.002695	1.073	1.006	0.909	0.801	0.753
x2 = 0.0004585, x1 = 0.0008998	1.041	0.926	0.831	0.761	0.684
x2 = 0.0005547, x1 = 0.002694	1.078	1.011	0.914	0.806	0.758
x2 = 0.0005732, x1 = 0.001798	1.067	0.948	0.851	0.767	0.699
x2 = 0.0008147, x1 = 0.0008995	1.047	0.932	0.837	0.768	0.691
x2 = 0.0008302, x1 = 0.001797	1.072	0.953	0.856	0.772	0.704
x2 = 0.0008383, x1 = 0.002693	1.083	1.016	0.919	0.811	0.763
x2 = 0.001093, x1 = 0.0008992	1.052	0.937	0.842	0.774	0.696
x2 = 0.001142, x1 = 0.001797	1.078	0.959	0.861	0.777	0.709
x2 = 0.001151, x1 = 0.002693	1.089	1.022	0.925	0.816	0.768
x2 = 0.00136, x1 = 0.000899	1.058	0.943	0.848	0.78	0.703
x2 = 0.001373, x1 = 0.001796	1.082	0.963	0.865	0.781	0.713
x2 = 0.001399, x1 = 0.002692	1.094	1.027	0.929	0.82	0.772
x2 = 0.001637, x1 = 0.0008987	1.063	0.948	0.854	0.785	0.708
x2 = 0.001664, x1 = 0.002691	1.098	1.032	0.933	0.825	0.777
x2 = 0.001674, x1 = 0.001796	1.087	0.968	0.87	0.786	0.718

CCCC[N+](CCCC)(CCCC)CCCC.[Cl-] + CSCC[C@H](N)C(=O)O
101 kPa
Conditions	electrical conductivity, x2 = 0.08333 [S/m]	electrical conductivity, x2 = 0.09091 [S/m]	electrical conductivity, x2 = 0.1 [S/m]	viscosity, x2 = 0.08333 [mPa·s]	viscosity, x2 = 0.09091 [mPa·s]	viscosity, x2 = 0.1 [mPa·s]
303.15 K	0.0061	0.0165	0.0113	2200	2300	2400
313.15 K	0.016	0.026	0.022	1400	1570	1560
323.15 K	0.0259	0.0418	0.0313	415	530	480
333.15 K	0.0749	0.0929	0.0837	221	295	290
343.15 K	0.107	0.129	0.12	119	157	148
353.15 K	0.14	0.17	0.15	70	94	87

[Cl-].c1ccc(C[P+](c2ccccc2)(c2ccccc2)c2ccccc2)cc1 + OCCO
Conditions	electrical conductivity [S/m]	viscosity [mPa·s]
293.15 K, 101 kPa, x1 = 0.083	0.191	60.6
303.15 K, 101 kPa, x1 = 0.08333	–	68.3
313.15 K, 101 kPa, x1 = 0.083	0.298	32.2
313.15 K, 101 kPa, x1 = 0.08333	–	54.2
323.15 K, 100 kPa, x1 = 0.0833	–	38.5
323.15 K, 101 kPa, x1 = 0.08333	–	41.8
333.15 K, 101 kPa, x1 = 0.08333	–	33
338.15 K, 101.3 kPa, x2 = 0.75	0.02	86
343.15 K, 100 kPa, x1 = 0.0833	–	24.6
343.15 K, 101 kPa, x1 = 0.08333	–	24.2
353.15 K, 101 kPa, x1 = 0.08333	–	20.7

CCCCCCCCCCCCCC[P+](CCCCCC)(CCCCCC)CCCCCC.[c-]1c[nH]nn1 + CCCCCCCCCCCCCC[P+](CCCCCC)(CCCCCC)CCCCCC.O=S(=O)([N-]S(=O)(=O)C(F)(F)F)C(F)(F)F
100 kPa
Conditions	viscosity [mPa·s]
288.15 K, x2 = 0.7	693
293.15 K, x2 = 0.5	502
293.15 K, x2 = 0.7	495
303.15 K, x2 = 0.401	288
303.15 K, x2 = 0.5	270
303.15 K, x2 = 0.7	270
308.15 K, x2 = 0.203	217
308.15 K, x2 = 0.5	204
308.15 K, x2 = 0.902	181

CCCC[N+](CCCC)(CCCC)CCCC.[Cl-] + CC[C@H](C)[C@H](N)C(=O)O
electrical conductivity [S/m], 100 kPa
Conditions	313.15 K	323.15 K	333.15 K	343.15 K	353.15 K
x1 = 0.8889	0.0522	0.0655	0.0876	0.1	0.119
x1 = 0.9	0.0263	0.045	0.0615	0.0789	0.105
x1 = 0.9091	0.0364	0.0499	0.072	0.0843	0.111

CCCC[n+]1ccn(C)c1.[Br-] + NC(N)=O + O
298.15 K, 100 kPa
Conditions	viscosity [mPa·s]
x2 = 0, x3 = 0.9487	2.21
x2 = 0.008492, x3 = 0.9402	2.29
x2 = 0.01695, x3 = 0.9318	2.29
x2 = 0.02496, x3 = 0.9237	2.28
x2 = 0.02678, x3 = 0.9219	2.36
x2 = 0.03322, x3 = 0.9155	2.36
x2 = 0.04109, x3 = 0.9076	2.41

CCCC[N+](CCCC)(CCCC)CCCC.[Cl-] + Oc1ccccc1
Conditions	viscosity [mPa·s]
323.15 K, 100 kPa, x1 = 0.167	37.2
